Tested on: K98450-129-R-PDC complex spheroid growth, percent test/control
Assay: Anticancer human tumor K98450-129-R-PDC patient-derived colon adenocarcinoma cell line growth inhibition [RAS]
Settings: for IC50: curve of first compound; for viability, T/C: stronger effect = lower value
Description: RAS pathway inhibitors in Combinations in Complex Spheroids
A high-throughput screen of multi-cell type tumor spheroids was designed to identify active combinations of RAS pathway inhibitors and targeted small molecules. Complex spheroids include a stromal component modeled by human endothelial cells (HUVEC) and fibroblasts modeled by human mesenchymal stem cells (MSCs). The concentration ranges selected for each drug and investigational agent were based upon clinically achievable concentrations if the clinical Cmax of the agent was known.
Compounds. The drugs and investigational agents: abemaciclib (NSC768073), cobimetinib (NSC768068), divarasib (GDC6063, NSC841802), docetaxel (NSC628503), GDC-1971 (RLY-1971, NSC841576), gemcitabine (NSC613327), inavolisib (NSC800729), ipatasertib (NSC767898), KB-0742 (NSC834161), MRTX-1133 (NSC836407), osimertinib (NSC779217), RMC-4630 (NSC839698), RMC-6236 (NSC851965), RMC-6291 (NSC852671), Ro-3306 (NSC812927), sapanisertib (NSC764658), SN-38 (NSC673596), staurosporine (NSC755774), SY5609 (NSC837396), and tovorafenib (DAY101, NSC766906), were obtained from the National Cancer Institute (NCI) Developmental Therapeutics Program Chemical Repository. The FDA-approved anticancer drug set is available from the NCI Developmental Therapeutics Program. […] The stock solutions were prepared in dimethyl sulfoxide (DMSO, Sigma-Aldrich, St. Louis, MO, cat. D2650) at 800-fold the tested concentration and stored at -70 degrees C prior to their use. All drugs and investigational agents were tested over a range starting from a high concentration at or near the clinical Cmax and decreasing in half-log increments. If the clinical Cmax for an agent had not been determined, the highest concentration tested was 10 microM.
Cell Culture. All cells were maintained in an incubator at 37 degrees C and 5% CO2 with 95% humidity. The PDC lines were cultured according to standard operating procedures established by the NCI PDMR. All PDCs were thawed and cultured in Matrigel-coated flasks prepared with a working solution of 1X Ham's F-12 nutrient mix, without supplementation (Invitrogen, Waltham, MA, cat. 11765054), 100 U/mL penicillin-streptomycin (Invitrogen, cat. 15140122), and 2.5% Matrigel (Corning Inc., Corning, NY, cat. 354248) for the first three passages. The 362531-283-R-J2-PDC and 782815-120-R-J1-PDC lines were cultured in 6C/Colon 1B media, which includes advanced DMEM/F-12 (Thermo Fisher Scientific, cat. 12634028), 10 mM HEPES (Thermo Fisher Scientific, cat. 15630080), 1X GlutaMAX supplement (Thermo Fisher Scientific, cat. 35050061), 0.1 mg/mL primocin (InvivoGen, San Diego, CA, cat. ant-pm-2), 10% defined fetal bovine serum, heat inactivated (HyClone Laboratories Inc., Logan, UT, cat. SH30070.03HI), 50% L-WRN conditioned media (ATCC, cat. CRL-3276), 1.25 mM N-Acetyl-L-cysteine (Sigma-Aldrich, cat. A9165), 10 mM nicotinamide (Sigma-Aldrich, cat. N0636), 1X B-27 supplement (Thermo Fisher Scientific, cat. 17504044), 1X N-2 supplement (Thermo Fisher Scientific, cat. 17502048), 50 ng/mL human EGF (Thermo Fisher Scientific, cat. PHG0311), and 10 microM Y-27632 dihydrochloride (Tocris Bioscience, cat. 1254). The K12877-001-R-J1-PDC line was cultured in 6I media, which includes all 6C/Colon 1B media plus 10 ng/mL human FGF-10 (PeproTech, cat. 100-26), 1 ng/mL human FGF-2 (PeproTech, cat. 100-18B), 1 µM prostaglandin E2 (Tocris Bioscience, cat. 2296), […] hydrocortisone (Sigma-Aldrich, cat. H4001), and […] bovine insulin (Sigma-Aldrich, cat. I6634). The K86415-001-R-J1-PDC line was cultured in 6D media, which includes all 6C/Colon 1B media components minus the L-WRN conditioned media. The 485176-168-R4-J1-PDC was cultured in PANC media, which includes all 6C/Colon 1B media plus 100 ng/mL human FGF-10 (PeproTech, cat. 100-26), 500 nM SB-431542 (Selleckchem, cat. S1067), and 10 nM gastrin (Tocris Bioscience, cat. 3006). […]
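Note: spheroids exposed to agents for seven days before the viability readout.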
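Throughout, for viability, T/C: luminescence used as a proxy for viable cell amount.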

CCC(CC)c1cc(NC2CCC(N)C2)n2nccc2n1 (configuration not stated) + C=CC(=O)N1CCN(c2nc(OCC3CCCN3C)nc3c(F)c(-c4nc(N)cc(C)c4C(F)(F)F)c(Cl)cc23)C(C)C1
IC50 (second compound 0.00316 µM): 5160 nM
IC50 (second compound 0.01 µM): 4560 nM
IC50 (second compound 0.0316 µM): 2770 nM
IC50 (second compound 0.1 µM): 1170 nM
IC50 (second compound 0.316 µM): < 31.6 nM
IC50 (second compound 1 µM): < 31.6 nM
viability, T/C (second compound 0.00316 µM, first compound 0.0316 µM): 97.6%
viability, T/C (second compound 0.00316 µM, first compound 0.1 µM): 93.8%
viability, T/C (second compound 0.00316 µM, first compound 0.316 µM): 91.5%
viability, T/C (second compound 0.00316 µM, first compound 1 µM): 87.3%
viability, T/C (second compound 0.00316 µM, first compound 3.16 µM): 78.2%
viability, T/C (second compound 0.00316 µM, first compound 10 µM): 13.5%
viability, T/C (second compound 0.01 µM, first compound 0.0316 µM): 88.2%
viability, T/C (second compound 0.01 µM, first compound 0.1 µM): 86.8%
viability, T/C (second compound 0.01 µM, first compound 0.316 µM): 84.6%
viability, T/C (second compound 0.01 µM, first compound 1 µM): 85.8%
viability, T/C (second compound 0.01 µM, first compound 3.16 µM): 66.2%
viability, T/C (second compound 0.01 µM, first compound 10 µM): 15.1%
viability, T/C (second compound 0.0316 µM, first compound 0.0316 µM): 78.6%
viability, T/C (second compound 0.0316 µM, first compound 0.1 µM): 73.3%
viability, T/C (second compound 0.0316 µM, first compound 0.316 µM): 73.1%
viability, T/C (second compound 0.0316 µM, first compound 1 µM): 60.4%
viability, T/C (second compound 0.0316 µM, first compound 3.16 µM): 51.3%
viability, T/C (second compound 0.0316 µM, first compound 10 µM): 8.93%
viability, T/C (second compound 0.1 µM, first compound 0.0316 µM): 48.2%
viability, T/C (second compound 0.1 µM, first compound 0.1 µM): 55.4%
viability, T/C (second compound 0.1 µM, first compound 0.316 µM): 51.9%
viability, T/C (second compound 0.1 µM, first compound 1 µM): 54.3%
viability, T/C (second compound 0.1 µM, first compound 3.16 µM): 34.1%
viability, T/C (second compound 0.1 µM, first compound 10 µM): 8.77%
viability, T/C (second compound 0.316 µM, first compound 0.0316 µM): 38.4%
viability, T/C (second compound 0.316 µM, first compound 0.1 µM): 38.9%
viability, T/C (second compound 0.316 µM, first compound 0.316 µM): 41%
viability, T/C (second compound 0.316 µM, first compound 1 µM): 37.3%
viability, T/C (second compound 0.316 µM, first compound 3.16 µM): 16.4%
viability, T/C (second compound 0.316 µM, first compound 10 µM): 7.47%
viability, T/C (second compound 1 µM, first compound 0.0316 µM): 32%
viability, T/C (second compound 1 µM, first compound 0.1 µM): 31.9%
viability, T/C (second compound 1 µM, first compound 0.316 µM): 33.3%
viability, T/C (second compound 1 µM, first compound 1 µM): 25.3%
viability, T/C (second compound 1 µM, first compound 3.16 µM): 11.1%
viability, T/C (second compound 1 µM, first compound 10 µM): 8.2%

Source: PubChem BioAssay AID2060891 (Molecular Pharmacology Branch, DTP, NCI, 2025)
